Two compounds from publication PMC8669121 (Epigenetics Insights, 2021) can be followed below.

The experiment has as its target T1, HDAC8 (histone deacetylase 8) (Homo sapiens, UniProt Q9BY41).
T1 sequence (Q9BY41 1-377): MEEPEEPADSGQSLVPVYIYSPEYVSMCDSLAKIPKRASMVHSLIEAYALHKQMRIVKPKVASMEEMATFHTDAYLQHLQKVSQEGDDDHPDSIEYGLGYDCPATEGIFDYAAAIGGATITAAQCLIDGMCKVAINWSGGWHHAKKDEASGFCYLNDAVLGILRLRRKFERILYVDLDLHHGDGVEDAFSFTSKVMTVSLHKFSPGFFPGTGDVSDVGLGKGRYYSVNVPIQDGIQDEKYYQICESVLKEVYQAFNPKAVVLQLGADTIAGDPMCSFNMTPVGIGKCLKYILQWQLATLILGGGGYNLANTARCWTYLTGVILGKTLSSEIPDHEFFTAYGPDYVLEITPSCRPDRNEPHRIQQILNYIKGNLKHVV
The experiment can be described thus: Fluor de Lys fluorogenic deacetylase inhibition assay with AcRHKK. In kind it is biochemical.

What is called Ki is the dissociation constant of the complex between target and ligand, obtained from inhibition or displacement. A low value points to tighter binding. The compound `CCCCCCCCCC(=O)O` [Decanoic acid] returned an inhibitory constant (Ki) of 4.48 ± 0.221 mM.
Then `CCCCCC(=O)O` [Hexanoic acid], with 2.35 ± 0.341 mM.
